Assay results taken from patent US5498609A, “Benzoazepinyl compounds as oxytocin and vasopressin antagonists” (Otsuka Pharmaceutical Company, Limited, priority 1992, dated 1996).
Structures can show the parent of a compound that is named as a salt.

Experiments:
V1 receptor = V1 receptor (Rattus norvegicus, UniProt P30560); assay: biochemical; details: rat liver plasma membrane, [3H]-Arg-vasopressin, 37° C., 10 minutes, pH 8.0; read-out: IC50 in V1 receptor binding assay
Procedure: Experiment 1: V1 receptor binding assay
Using rat liver plasma membrane preparations prepared according to Ichihara's method [cf: Akira Ichihara, J. Bio. Chem., 258, 9283 (1983)], the plasma membrane (50000 dpm, 2×10^-10 M) of [^3 H]-Arg-vasopressin and a test compound (60 μg, 10^-8 to 10^-4 M) are incubated at 37° C. for 10 minutes in 100 mM Tris-HCl buffer (pH: 8.0) (250 μl) containing 5 mM MgCl2, 1 mM EDTA and 0.1% BSA. After incubation, the mixture is filtered three times using the glass filter (GF/F) so as to separate the membrane preparation binding with vasopressin and then washed with the buffer (5 ml). This glass filter is taken out and mixed with liquid scintillation cocktail. The amount of [^3 H]-vasopressin binding with the membrane is measured by liquid scintillation counter and the rate of the inhibitory effect of the test compound is estimated according to the following equation. [formula] C1 : The amount of [^3 H]-vasopressin binding with the membrane in the presence of the test compound (known amount)
(§1) C0 : The amount of [^3 H]-vasopressin binding with the membrane in the absence of the test compound
(§2) B1 : The amount of [^3 H]-vasopressin binding with the membrane in the presence of the excess amount of vasopressin (10^-6 M)
(§3) The results are expressed as IC50 value, which is the concentration of the test compound required to achieve the inhibitory effect in the rate of 50%.

V2 receptor = target: T1, V2 receptor (Rattus norvegicus, UniProt Q00788); assay: biochemical; details: rat kidney plasma membrane, [3H]-Arg-vasopressin, 4° C., pH 8.0, read-out: IC50 in V2 receptor binding assay
T1 construct: Using rat kidney plasma membrane preparations; from tissue; host or cells: rat kidney plasma membrane
T1 sequence (Q00788 whole entry): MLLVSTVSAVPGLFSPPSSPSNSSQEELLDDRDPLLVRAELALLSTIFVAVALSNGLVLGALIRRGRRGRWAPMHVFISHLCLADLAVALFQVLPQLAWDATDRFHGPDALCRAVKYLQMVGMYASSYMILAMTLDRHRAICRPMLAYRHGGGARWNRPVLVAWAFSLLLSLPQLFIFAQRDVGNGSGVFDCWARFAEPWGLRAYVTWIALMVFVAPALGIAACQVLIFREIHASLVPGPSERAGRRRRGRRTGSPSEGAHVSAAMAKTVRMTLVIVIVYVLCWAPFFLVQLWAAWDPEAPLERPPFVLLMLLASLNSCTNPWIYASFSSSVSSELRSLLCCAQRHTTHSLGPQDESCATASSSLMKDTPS
Procedure: Experiment 2: V2 receptor binding assay
Using rat kidney plasma membrane preparations prepared according to O. Hechter's method [cf: J. Bio. Chem., 253, 3211 (1978)], the plasma membrane (100000 dpm, 4×10^-10 M) of [^3 H]-Arg-vasopressin and a test compound (0.6 mg, 10^-10 to 10^-5 M) are incubated at 4° C. for 3 hours in 100 mM Tris-HCl buffer (pH: 8.0) (250 μl) containing 5 mM MgCl2, 1 mM EDTA and 0.1% BSA. After incubation, the mixture is filtered using the glass filter (GF/F) so as to separate the membrane preparation binding with vasopressin and then washed twice with the buffer (each 5 ml). This glass filter is taken out and mixed with liquid scintillation cocktail. The amount of [^3 H]-vasopressin binding with the membrane is measured by liquid scintillation counter and the rate of the inhibitory effect of the test compound is estimated according to the following equation. [formula] C1 : The amount of [^3 H]-vasopressin binding with the membrane in the presence of the test compound (known amount)
as §1, §2, §3

Sequence of V1 receptor (P30560 whole entry): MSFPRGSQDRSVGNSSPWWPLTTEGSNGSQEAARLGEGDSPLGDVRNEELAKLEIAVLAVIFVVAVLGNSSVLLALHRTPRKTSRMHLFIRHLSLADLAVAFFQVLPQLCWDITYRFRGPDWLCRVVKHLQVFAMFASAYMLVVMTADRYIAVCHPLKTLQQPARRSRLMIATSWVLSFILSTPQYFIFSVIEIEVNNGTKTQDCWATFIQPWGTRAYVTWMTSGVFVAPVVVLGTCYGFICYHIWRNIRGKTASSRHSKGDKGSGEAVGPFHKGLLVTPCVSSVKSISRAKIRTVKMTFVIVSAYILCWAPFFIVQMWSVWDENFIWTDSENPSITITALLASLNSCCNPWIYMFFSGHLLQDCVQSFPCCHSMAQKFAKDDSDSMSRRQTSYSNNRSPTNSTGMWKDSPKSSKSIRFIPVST

IC50 (V1 receptor) [nM] | IC50 (V2 receptor) [nM] | SMILES
77 | 170 | COc1ccccc1C(=O)Nc1ccc(C(=O)N2CCCC(O)c3cc(Cl)ccc32)cn1 (stereo not drawn) [Compound of Ex. 28]
41 | 3.7 | CNC1CCCN(C(=O)c2ccc(NC(=O)c3ccccc3C)nc2)c2ccc(Cl)cc21 (stereo not drawn) [Compound of Ex. 79]
26 | 3 | CC(=O)NCCOC1CCCN(C(=O)c2ccc(NC(=O)c3ccccc3C)nc2)c2ccc(Cl)cc21 (stereo not drawn) [Compound of Ex. 38, 7-chloro-5-(2-acetylaminoethoxy)-1-[6-(2-methylbenzoylamino)nicotinoyl]-2,3,4,5-tetrahydro-1H-benzazepine]
6.6 | 3.1 | CC(=O)NCCC1CCCN(C(=O)c2ccc(NC(=O)c3ccccc3C)nc2)c2ccc(Cl)cc21 (stereo not drawn) [Compound of Ex. 143, 7-chloro-5-(2-acetylamino-ethyl)-1-[6-(2-methylbenzoylamino)nicotinoyl]-2,3,4,5-tetrahydro-1H-benzazepine]
67 | 300 | Cc1ccccc1C(=O)Nc1ccc(C(=O)N2CCCC(O)c3cc(Cl)ccc32)s1 (stereo not drawn) [Compound of Ex. 48]
17 | 10 | O=C(Nc1ccc(C(=O)N2CCCC(NC3CC3)c3cc(Cl)ccc32)cn1)c1ccccc1Cl (stereo not drawn) [Compound of Ex. 78]
16 | 4.1 | Cc1ccccc1C(=O)Nc1ccc(C(=O)N2CCCC(CCNC(C)C)c3cc(Cl)ccc32)cn1 (stereo not drawn) [Compound of Ex. 139]
12 | 1.9 | COC1CCCN(C(=O)c2ccc(NC(=O)c3ccccc3Br)nc2)c2ccc(Cl)cc21 (stereo not drawn) [Compound of Ex. 73]
24 | 11 | O=C(Nc1ccc(C(=O)N2CCCC(O)c3cc(Cl)ccc32)cn1)c1ccccc1[N+](=O)[O-] (stereo not drawn) [Compound of Ex. 29]
31 | 5.6 | Cc1ccccc1C(=O)Nc1ccc(C(=O)N2CCCC(CCn3cncn3)c3cc(Cl)ccc32)cn1 (stereo not drawn) [Compound of Ex. 140]
78 | 61 | Cc1ccccc1C(=O)Nc1ccc(C(=O)N2CCCC(O)c3cc(Cl)ccc32)nc1 (stereo not drawn) [Compound of Ex. 50]
41 | 250 | Cc1ccccc1C(=O)Nc1cnc(C(=O)N2CCCC(O)c3cc(Cl)ccc32)s1 (stereo not drawn) [Compound of Ex. 49]

Second part, the compound before the results:

SMILES | IC50 (V1 receptor) [nM] | IC50 (V2 receptor) [nM]
CC(=O)N1CCN(CCOC2CCCN(C(=O)c3ccc(NC(=O)c4ccccc4Cl)nc3)c3ccc(Cl)cc32)CC1 (stereo not drawn) [Compound of Ex. 181] | 15 | 4.4
O=C(Nc1ccc(C(=O)N2CCCC(CCn3ccnc3)c3cc(Cl)ccc32)cn1)c1ccccc1Cl (stereo not drawn) [Compound of Ex. 129] | 31 | 4.8
O=C(O)COC1CCCN(C(=O)c2ccc(NC(=O)c3ccccc3Cl)nc2)c2ccc(Cl)cc21 (stereo not drawn) [Compound of Ex. 169] | 117 | 19
Cc1ccccc1C(=O)Nc1ccc(C(=O)N2CCCC(CC(=O)N3CCN(C)CC3)c3cc(Cl)ccc32)cn1 (stereo not drawn) [Compound of Ex. 42] | 30 | 3
CC(=O)N1CCN(CCC2CCCN(C(=O)c3ccc(NC(=O)c4ccccc4Cl)nc3)c3ccc(Cl)cc32)CC1 (stereo not drawn) [Compound of Ex. 128] | 16 | 4.6
Cc1ccccc1C(=O)Nc1ccc(C(=O)N2CCCC(OCCN3CCOCC3)c3cc(Cl)ccc32)cn1 (stereo not drawn) [Compound of Ex. 182] | 28 | 10
CCN(CC)CCN(C)C(=O)COC1CCCN(C(=O)c2ccc(NC(=O)c3ccccc3Cl)nc2)c2ccc(Cl)cc21 (stereo not drawn) [Compound of Ex. 175] | 8.4 | 2.7
CN(C)CCOc1ccccc1C(=O)Nc1ccc(C(=O)N2CCCCc3cc(Cl)ccc32)cn1 [Compound of Ex. 96, 7-chloro-1-{6-[2-(2-dimethylaminoethoxy)benzoyl-amino]nicotinoyl}-2,3,4,5-tetrahydro-1H-benzazepine dihydrochloride] | 43 | 300
O=C(Nc1ccc(C(=O)N2CCCC(OCCNC3CCCC3)c3cc(Cl)ccc32)cn1)c1ccccc1Cl (stereo not drawn) [Compound of Ex. 187] | 7.8 | 8
